Measured values reported in ChEMBL document CHEMBL1201862, “PubChem BioAssay data set” (2004).
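1) Cells in 96-well plates. 2) Compound, 48 h, 5 concentrations. 3) Linear interpolation between surrounding doses. 4) Unreached endpoint = highest concentration. GI50 marks 50% less growth.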 Activity calls are given as the source filed them. Rule as the data show it: active = GI50 up to about 1.1 µM and inactive = higher.

How the values were obtained:
Experiment in all cases: inhibition of tumour cell growth, NCI panel, 48 h
[1] = test system: SF-539
[2] = test system: SW-620
[3] = test system: SR
[4] = test system: COLO 205
[5] = test system: SNB-75
[6] = test system: UACC-62
[7] = test system: NCI-H23
[8] = test system: RXF 393
[9] = test system: CCRF-CEM
[10] = test system: Malme-3M
[11] = test system: UO-31
[12] = test system: K562
[13] = test system: UACC-257
[14] = test system: IGROV-1
[15] = test system: HCT-116
[16] = test system: EKVX
[17] = test system: HOP-92
[18] = test system: 786-0
[19] = test system: SK-OV-3
[20] = test system: SN12C
[21] = test system: A549
[22] = test system: KM12
[23] = test system: M19-MEL
[24] = test system: DLD-1
[25] = test system: XF498
[26] = test system: OVCAR-3
[27] = test system: NCI-H226
[28] = test system: HOP-18
[29] = test system: U-251
[30] = test system: OVCAR-5
[31] = test system: ACHN
[32] = test system: LOX IMVI
[33] = test system: SK-MEL-5
[34] = test system: SNB-19
[35] = test system: HT-29
[36] = test system: HL-60
[37] = test system: RPMI-8226
[38] = test system: OVCAR-4
[39] = test system: SK-MEL-2
[40] = test system: A498
[41] = test system: CAKI-1
[42] = test system: NCI-H460
[43] = test system: TK-10
[44] = test system: OVCAR-8
[45] = test system: HCC 2998
[46] = test system: DU-145
[47] = test system: MOLT-4
[48] = test system: SF-268
[49] = test system: LXFL 529
[50] = test system: SNB-78
[51] = test system: NCI-H522
[52] = test system: M14
[53] = test system: KM-20L2
[54] = test system: SF-295

Measured: GI50

C/C(=N/NC(N)=S)C(CN1CCOCC1)C(C1=C(O)c2ccccc2OC1)c1ccccc1 (centres undefined)
inactive: [1] > 100 µM | [2] > 100 µM | [3] 25.4 µM | [4] 68.9 µM | [5] 78 µM | [6] > 100 µM | [7] > 100 µM | [8] > 100 µM | [9] 60.7 µM | [10] 69 µM | [11] > 100 µM | [12] 93.1 µM | [13] > 100 µM | [14] > 100 µM | [15] 85.5 µM | [16] > 100 µM | [17] 71.3 µM | [18] > 100 µM | [19] > 100 µM | [20] > 100 µM | [21] > 100 µM | [22] > 100 µM | [23] > 100 µM | [24] > 100 µM | [25] > 100 µM | [26] > 100 µM | [27] > 100 µM | [28] > 100 µM | [29] > 100 µM | [30] > 100 µM | [31] > 100 µM | [32] > 100 µM | [33] > 100 µM | [34] > 100 µM | [35] > 100 µM | [36] 21 µM | [37] 90.2 µM | [38] > 100 µM | [39] > 100 µM | [40] > 100 µM | [41] > 100 µM | [42] > 100 µM | [43] > 100 µM | [44] > 100 µM | [45] > 100 µM | [46] > 100 µM | [47] 39 µM | [48] 41.8 µM | [49] > 100 µM | [50] > 100 µM | [51] > 100 µM | [52] > 100 µM | [53] > 100 µM | [54] > 100 µM
